In this assay the test system is PMA-differentiated THP-1 cells. The assay is described as follows: IL-1β production in PMA-differentiated THP-1 cells stimulated with gramicidin (hTHP-1 assay containing 2% fetal bovine serum; Procedures 1 and 2). Type of assay: cell-based, human. The settings on record: 2% fetal bovine serum. The method in brief:
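PMA 20 ng/ml 16-18 h → trypsinise → 50,000 cells/well, RPMI/2% FBS; cpd 1 h (11-pt, 100–0.0017 μM; DMSO 0.37%); gramicidin 5 μM, 2 h; spin; supernatant IL-1β via HTRF.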

Where [1] appears, read: Homo sapiens, THP-1, Table B3, hTHP-1 assay, class symbols, read-out: IC50.
[2] abbreviates: Table B1, class symbols, read-out: Average IC50 of compounds in hTHP-1 assay: hTHP-1 IC50.
Setting [3] is: Homo sapiens, THP-1, Table B1, numeric bounds, read-out: Average IC50 of compounds in hTHP-1 assay: hTHP-1 IC50.

Structures are written as SMILES. Where two headings read alike, the source gives them in different places.

Broadly, the IC50 is the concentration that inhibits the measured activity by half. Consider `CCc1nc2c(c(NC(=O)N=S(N)(=O)c3ccn(C(F)F)n3)c1C1CC1)CCC2` (stereo not shown) [Compound 629, N′-((3-cyclopropyl-2-ethyl-6,7-dihydro-5H-cyclopenta[b]pyridin-4-yl)carbamoyl)-1-(difluoromethyl)-1H-pyrazole-3-sulfonimidamide], for which, where the note is “Homo sapiens, THP-1, Table B2, class symbols, read-out: hTHP-1 IC50”, the IC50 lay within 1000 to 5000 nM.
For the molecule `CC(C)(O)c1sc(S(N)(=O)=NC(=O)Nc2c3c(nc4c2CCC4)CCC3)cc1Cl` (single isomer, unassigned) [Compound 688a, (R) or (S)-4-Chloro-N′-((1,2,3,5,6,7-hexahydrodicyclopenta [b,e]pyridin-8-yl)carbamoyl)-5-(2-hydroxypropan-2-yl)thiophene-2-sulfonimidamide], under “Table B2, class symbols, read-out: hTHP-1 IC50”, the IC50 is 200 to 1000 nM.
Consider `CCn1ccc(S(N)(=O)=NC(=O)Nc2c(C)c(C(F)(F)F)nc3c2CCC3)n1` (stereo not shown) [Example 634, 1-Ethyl-N′-((3-methyl-2-(trifluoromethyl)-6,7-dihydro-5H-cyclopenta[b]pyridin-4-yl)carbamoyl)-1H-pyrazole-3-sulfonimidamide], for which, under setting [1], the IC50 lay within 1000 to 5000 nM.
With `Cc1c(C(F)(F)F)nc2c(c1NC(=O)N=S(N)(=O)c1cnc(C(C)(O)CO)s1)CCC2` (single isomer, unassigned) [Compound 605d, (R, S) and (S, S) or (R, R) and (S, R)-2-(l,2-Dihydroxypropan-2-yl)-N′-((3-methyl-2-(trifluoromethyl)-6,7-dihydro-5H-cyclopenta[b]pyridin-4-yl)carbamoyl) thiazole-5-sulfonimidamide], the IC50 (Homo sapiens, THP-1, Table B2, numeric bounds, read-out: hTHP-1 IC50) is > 30000 nM.
Regarding `CC(C)(O)c1csc(S(N)(=O)=NC(=O)Nc2c3c(nc4c2CCC4)CCC3)c1` (single isomer, unassigned) [Compound 155b, (S) or (R)-N′-((1,2,3,5,6,7-hexahydrodicyclo-penta[b,e]pyridin-8-yl)carbamoyl)-4-(2-hydroxypropan-2-yl)thiophene-2-sulfonimidamide], the IC50 under setting [2] was in the range of 1000 to 5000 nM.
In the case of `CC(C)c1csc(S(N)(=O)=NC(=O)Nc2c3c(nc4c2CCC4)CCC3)c1` (single isomer, unassigned) [Compound 173b, (S) or (R)-N′-((1,2,3,5,6,7-hexahydrodicyclo-penta[b,e]pyridin-8-yl)carbamoyl)-4-isopropylthiophene-2-sulfonimidamide], under setting [3], the IC50 was > 20000 nM.
Turning to `CCn1cc(F)c(S(N)(=O)=NC(=O)Nc2c3c(nc4c2CCC4(C)C)CCC3)n1` (single isomer, unassigned) [Example 716, (S) or (R)-N′-((3,3-dimethyl-1,2,3,5,6,7-hexahydrodicyclopenta[b,e]pyridin-8-yl)carbamoyl)-1-ethyl-4-fluoro-1H-pyrazole-3-sulfonimidamide], the IC50 (Table B3, hTHP-1 assay, class symbols, read-out: IC50) was 1000 to 5000 nM.
With `CC(C)(O)c1nc(CO)c(S(N)(=O)=NC(=O)Nc2c3c(nc4c2CCC4)CCC3)s1` (single isomer, unassigned) [Compound 150b, (R) or (S)-N′-((1,2,3,5,6,7-hexahydrodicyclo-penta[b,e]pyridin-8-yl)carbamoyl)-4-(hydroxymethyl)-2-(2-hydroxypropan-2-l)thiazole-5-sulfonimidamide], the IC50 under setting [2] was in the range of 200 to 1000 nM.
Consider `Cc1c(C2(F)CC2)nc2c(c1NC(=O)N=[S@@](N)(=O)c1cnc(C(C)(C)O)s1)CCC2` [Example 579, (R)-N′-((2-(1-fluorocyclopropyl)-3-methyl-6,7-dihydro-5H-cyclopenta[b]pyridin-4-yl)carbamoyl)-2-(2-hydroxypropan-2-yl)thiazole-5-sulfonimidamide], for which the IC50 under setting [1] fell in the range of 1000 to 5000 nM.
As to `CC1CCc2c1nc1c(c2NC(=O)N=S(N)(=O)c2sc(C(C)(C)O)nc2CO)CCC1` (single isomer, unassigned) [Compound 168ab, (S,R) or (S,S)-4-(hydroxymethyl)-2-(2-hydroxypropan-2-yl)-N′-((3-methyl-1,2,3,5,6,7-hexahydrodicyclo-penta[b,e]pyridin-8-yl)carbamoyl)thiazole-5-sulfonimidamide], the IC50 under setting [3] is > 30000 nM.

(Values after patent publication US20230031406A1, “COMPOUNDS AND COMPOSITIONS FOR TREATING CONDITIONS ASSOCIATED WITH NLRP ACTIVITY” (Novartis AG, priority 2018, published 2023).)
